From publication PMC4741889, “Ligand-based chemoinformatic discovery of a novel small molecule inhibitor targeting CDC25 dual specificity phosphatases and displaying in vitro efficacy against melanoma cells” (Oncotarget, 2015)

Tests used:
Format in all cases: cell-based, human
[1] = tested on: SAN cells; assay: Intracellular ROS level (DCFH-DA), SAN cells; conditions: SAN, then 100 μM 7 for 4 h
Experimental: The high redox reactivity of quinonoid molecules, like compound 7, could greatly perturb the intracellular redox state. […] The oxidant effect of 7 was also evaluated after cell pre-treatment with two antioxidant molecules, such as N-acetyl-cysteine (NAC) and the specific inhibitor of NADPH oxidase, apocynin. To this aim, A2058 and SAN cells were pre-incubated for 1 h with 10 mM NAC or 45 min with 0.5 mM apocynin and then treated for 4 h with 100 μM compound 7. […] The cytotoxic activity of 7 could be mediated by the observed increase of ROS level.
The intracellular ROS level was monitored using the oxidation-sensitive fluorescence probe DCFH-DA. Cells were seeded into 6-well-plates (3 × 10^5 cells/plate) for 24 h at 37°C and then treated at various times with 100 μM compound 7 or 0.5% DMSO. DCFH-DA was added in the dark at 10 μM final concentration 30-min before the end of each incubation; then, cells were collected, washed in PBS, and finally resuspended in 500 μL PBS for fluorimetric analysis. Measurements were realized in a Cary Eclipse fluorescence spectrophotometer (Varian); excitation and emission wavelengths were set at 485 nm and 530 nm, respectively; both excitation and emission slits were set at 10 nm. The effect of 7 on ROS production was also estimated after pretreatment of cells with 10 mM NAC for 1 h.
Supplementary Figure S5: ROS production and their involvement in the apoptotic process of SAN cells, as induced by treatment with compound 7. A. Time-dependent measurement of ROS production. Cells were incubated with 0.5% DMSO (open bars) or 100 μM compound 7 (black bars) and then the intracellular ROS level was measured. B. Effect of antioxidant molecules on ROS production. The ROS level was also measured in cells untreated or pretreated with NAC or apocynin after a 4-h incubation with DMSO or 7. C. Effect of NAC on apoptosis. The PI incorporation was evaluated in cells untreated or pretreated with NAC after a 48-h incubation with DMSO or 7. ROS production was expressed as a.u., and apoptosis as a percentage. […]

[2] = tested on: pAkt protein levels; assay: Western blotting of pAkt (Ser473) in A2058 cells; conditions: A2058, 100 μM, 2 and 4 h
Experimental: The molecular mechanisms that regulate the cytotoxic potential of 7 in melanoma cells were further investigated through the evaluation of the activation state of protein kinase B (pAkt), one of the key proteins involved in the control and regulation of cell survival. To this aim, the protein levels of pAkt have been analyzed after 2- and 4-h incubation of A2058 cells with 7. […] It is known that Akt regulates the process of cell survival by phosphorylating different substrates, directly or indirectly involved in the apoptotic program. One of these targets is p53, a protein with a tumor-suppressor activity that regulates the cell cycle, as well as the expression of several genes involved in the apoptosis. […]
A2058 cells were seeded into 6-well-plates (3 × 10^5 cells/plate) for 24 h at 37°C and then treated at different times with 100 μM compound 7 or 0.5% DMSO. […] The protein concentration was determined by the method of Bradford, using bovine serum albumin (BSA) as standard. […] Membranes were then analysed by an enhanced chemiluminescence reaction, using Super Signal West Pico kit (Pierce) according to manufacturer's instruction; signals were visualized by autoradiography.

[3] = tested on: A2058 cells; assay: MTT cell growth rate, A2058 melanoma cells; conditions: for cell growth rate: A2058, 100 μM
Experimental: The human melanoma cell line A2058, kindly provided by CEINGE (Naples, Italy), and SAN cells were derived from lymph nodal metastases and grown in DMEM and RPMI 1640, respectively, supplemented with 10% FBS, 2 mM L-glutamine, 100 IU/mL penicillin G, and 100 μg/mL streptomycin in humidified incubator at 37°C under 5% CO2 atmosphere. All cells were split and seeded every three days and used during the exponential phase of growth. Cell treatments were always carried after 24 h from plating.
The MTT assay was used to detect cell proliferation essentially as previously described. Briefly, A2058 and SAN cells were plated in 96-well microtiter plates (100 μL/well) at 4000 and 6000 cells/well, respectively. After 24-h seeding, cells were treated with the selected compounds added at 25, 50 or 100 μM concentration, or with 0.5% (v/v) DMSO as a vehicle control. After 24-h, 48-h or 72-h treatment, and upon the addition of 10 μL of MTT solution in the dark, the plate was incubated for 3 h at 37°C under CO2 atmosphere. After medium aspiration and solubilization of formazan crystals, absorbance was measured at 570 nm, using an ELISA plate reader (Bio-Rad, Milano, Italy).

With O=C(O)C1CCCCC1c1c2ccc(=O)cc-2oc2cc(O)ccc12 (stereo not drawn) [Compound 7, 2-(6-hydroxy-3-oxo-3H-xanthen-9-yl)cyclohexanecarboxylic acid] the “increase of ROS level after apocynin pre-treatment” value ([1]; 0.5 mM apocynin 45 min) was “did not prevent the increase of ROS level”, the “increase of ROS level after NAC pre-treatment” value ([1]; 10 mM NAC 1 h) was “prevented by the NAC treatment” and the “protein level of pAkt with respect to total Akt” value [2] was “early reduction of the protein level of pAkt”. The cell growth rate ([3]; 48 h, MTT) was “significant reduction of the cell growth rate”, the cell growth rate ([3]; 72 h, MTT (data not shown)) was “significant reduction of cell growth rate” and the “minimum concentration of inhibitor that caused an evident cytotoxic activity” value ([3]; A2058, 25, 50 or 100 μM tested, 48 h (Supplementary Figure S2)) was 100 µM.
